The target of data set [1] is T1, human TLR9 (Homo sapiens, UniProt Q9NR96).
T1 construct: host or cells: HEK293 (HEK-Blue hTLR9)
T1 sequence (Q9NR96 26-1032): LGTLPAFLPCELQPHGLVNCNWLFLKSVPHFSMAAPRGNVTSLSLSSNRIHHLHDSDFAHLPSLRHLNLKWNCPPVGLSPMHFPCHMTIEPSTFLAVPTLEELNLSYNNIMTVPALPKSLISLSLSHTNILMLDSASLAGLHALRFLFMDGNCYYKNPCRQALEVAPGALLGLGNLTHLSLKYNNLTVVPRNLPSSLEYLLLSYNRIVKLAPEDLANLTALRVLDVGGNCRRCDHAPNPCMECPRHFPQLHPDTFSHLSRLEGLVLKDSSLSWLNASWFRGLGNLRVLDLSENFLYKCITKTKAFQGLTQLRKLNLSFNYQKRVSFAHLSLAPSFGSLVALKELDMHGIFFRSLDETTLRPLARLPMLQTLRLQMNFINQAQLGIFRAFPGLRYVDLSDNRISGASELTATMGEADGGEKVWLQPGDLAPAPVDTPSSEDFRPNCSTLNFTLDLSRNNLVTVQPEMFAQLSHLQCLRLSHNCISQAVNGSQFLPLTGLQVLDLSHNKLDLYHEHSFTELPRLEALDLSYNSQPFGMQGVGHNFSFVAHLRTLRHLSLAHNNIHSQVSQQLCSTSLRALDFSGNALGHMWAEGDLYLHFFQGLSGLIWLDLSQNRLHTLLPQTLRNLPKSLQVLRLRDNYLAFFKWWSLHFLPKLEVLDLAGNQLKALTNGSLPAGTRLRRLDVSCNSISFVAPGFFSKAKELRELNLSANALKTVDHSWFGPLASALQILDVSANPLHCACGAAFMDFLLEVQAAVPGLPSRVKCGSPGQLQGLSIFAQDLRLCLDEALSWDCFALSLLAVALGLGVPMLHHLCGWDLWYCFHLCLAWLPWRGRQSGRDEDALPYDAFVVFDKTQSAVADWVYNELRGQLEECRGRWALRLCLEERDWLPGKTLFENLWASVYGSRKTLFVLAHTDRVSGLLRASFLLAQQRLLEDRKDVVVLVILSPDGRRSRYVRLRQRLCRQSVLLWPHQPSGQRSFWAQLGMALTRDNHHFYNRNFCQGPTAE
Description: HEK293-Blue-hTLR-9 cells assay. The note with it: HEK293-Blue-hTLR9 cells, ODN2006 stimulation, 20 hrs, SEAP reporter; read-out: HEK/hTLR9 IC50. Type of data set: cell-based. An excerpt:
HEK293-Blue-hTLR-9 Cells Assay:
A stable HEK293-Blue-hTLR-9 cell line was purchased from InvivoGen (Cat. #: hkb-htlr9, San Diego, Calif., USA). These cells were originally designed for studying the stimulation of human TLR9 by monitoring the activation of NF-κB. A SEAP (secreted embryonic alkaline phosphatase) reporter gene was placed under the control of the IFN-β minimal promoter fused to five NF-κB and AP-1-binding sites. The SEAP was induced by activating NF-κB and AP-1 via stimulating HEK-Blue hTLR9 cells with TLR9 ligands. Therefore the reporter expression was declined by TLR9 antagonist under the stimulation of a ligand, such as ODN2006 (Cat. #: tlrl-2006-1, Invivogen, San Diego, Calif., USA), for incubation of 20 hrs. The cell culture supernatant SEAP reporter activity was determined using QUANTI-Blue^TM kit (Cat. #: rep-qbl, Invivogen, San Diego, Calif., USA) at a wavelength of 640 nm, a detection medium that turns purple or blue in the presence of alkaline phosphatase.
HEK293-Blue-hTLR9 cells were incubated at a density of 250,000˜450,000 cells/mL in a volume of 170 μL in a 96-well plate in Dulbecco's Modified Eagle's medium (DMEM) containing 4.5 g/L glucose, 50 U/mL penicillin, […] streptomycin, […] Normocin, 2 mM L-glutamine, 10% (v/v) heat-inactivated fetal bovine serum with addition of 20 μL test compound in a serial dilution in the presence of final DMSO at 1% and 10 μL of 20 uM ODN2006 in above DMEM, perform incubation under 37° C. in a CO2 incubator for 20 hrs. Then 20 μL of the supernatant from each well was incubated with 180 μL Quanti-blue substrate solution at 37° C. for 2 h and the absorbance was read at 620-655 nm using a spectrophotometer. The signaling pathway that TLR9 activation leads to downstream NF-κB activation has been widely accepted, and therefore similar reporter assay was modified for evaluating TLR9 antagonist.

A short description of data set [2]: Human microsomal stability assay. The note with it: human liver microsomes, 1 μM test compound, 0.5 mg/mL protein, 37° C., pH 7.4. The class given is in vitro ADME. As to the method:
Human Microsomal Stability Assay
Human liver microsomes (Cat.NO.: 452117, Corning, USA) were preincubated with test compound for 10 minutes at 37° C. in 100 mM potassium phosphate buffer, pH 7.4. The reactions were initiated by adding NADPH regenerating system. The final incubation mixtures contained 1 μM test compound, 0.5 mg/mL liver microsomal protein, 1 mM MgCl2, 1 mM NADP, 1 unit/mL isocitric dehydrogenase and 6 mM isocitric acid in 100 mM potassium phosphate buffer, pH 7.4. After incubation times of 0, 3, 6, 9, 15 and 30 minutes at 37° C., 300 μL of cold ACN (including internal standard) was added to 100 μL incubation mixture to terminate the reaction. Following precipitation and centrifugation, 100 uL supernatant will be taken out and added 300 uL water. The amount of compound remaining in the samples was determined by LC-MS/MS. Controls of no NADPH regenerating system at zero and 30 minutes were also prepared and analyzed. The results were categorized as: low (7.0 mL/min/kg), medium (7.0-16.2 mL/min/kg) and high (16.2-23.2 mL/min/kg).

Consider `C[C@@H]1CN(c2ccc(C#N)c3ncccc23)C[C@@H]2c3cnc(N4CCNCC4)cc3CN12` [Example 2, 5-[(2S,6R)-6-methyl-11-piperazin-1-yl-4,7,12-triazatricyclo[7.4.0.02,7]trideca-1(9),10,12-trien-4-yl] quinoline-8-carbonitrile], for which the IC50 in data set [1] is 449 nM. For the same compound, the “CL (h)” value in data set [2] was 6.2 mL/min/kg.
For `N#Cc1ccc(N2CCN3Cc4nc(N5CCNCC5)ccc4[C@@H]3C2)c2cccnc12` [Example 3A, 5-[(2R)-11-piperazin-1-yl-4,7,10-triazatricyclo[7.4.0.02,7]trideca-1(9),10,12-trien-4-yl]quinoline-8-carbonitrile], in that order: 142 nM and 8.4 mL/min/kg.
As for `CC1(N)CCN(c2ccc3c(n2)CN2CCN(c4ccc(C#N)c5ncccc45)C[C@@H]32)CC1` [Example 4A, 5-[(2R)-11-(4-amino-4-methyl-1-piperidyl)-4,7,10-triazatricyclo[7.4.0.02,7]trideca-1(9),10,12-trien-4-yl]quinoline-8-carbonitrile], in data set [1], the IC50 is 56.6 nM. Besides, the “CL (h)” value in data set [2] is listed as 8.9 mL/min/kg.
Regarding `C[C@@H]1CN(c2ccc(C#N)c3ncccc23)C[C@@H]2c3ccc(N4CCNCC4)nc3CN12` [Example 5, 5-[(2S,6R)-6-methyl-11-piperazin-1-yl-4,7,10-triazatricyclo[7.4.0.02,7]trideca-1(9),10,12-trien-4-yl]quinoline-8-carbonitrile], the IC50 in data set [1] worked out at 252 nM. Moreover, the “CL (h)” value in data set [2] came out at 8.1 mL/min/kg.
Take `C[C@@H]1CN(c2ccc(C#N)c3ncccc23)C[C@@H]2c3ccc(N4CC5CNCC(C4)O5)nc3CN12` [Example 6, 5-[(2S,6R)-6-methyl-11-(9-oxa-3,7-diazabicyclo[3.3.1]nonan-3-yl)-4,7,10-triazatricyclo[7.4.0.02,7]trideca-1(9),10,12-trien-4-yl]quinoline-8-carbonitrile]: in data set [1], the IC50 is 195 nM. Moreover, the “CL (h)” value in data set [2] is given as 6.2 mL/min/kg.
In the case of `[2H]c1ccc2c(N3C[C@@H](C)N4Cc5nc(N6CC[C@@](C)(N)C6)ccc5[C@H]4C3)ccc(C#N)c2n1` [Example 7, 5-[(2S,6R)-11-[(3R)-3-amino-3-methyl-pyrrolidin-1-yl]-6-methyl-4,7,10-triazatricyclo[7.4.0.02,7]trideca-1(9),10,12-trien-4-yl]-2-deuterio-quinoline-8-carbonitrile], in data set [1], the IC50 is 236 nM. Also, the “CL (h)” value in data set [2] is 6.2 mL/min/kg.
`[2H]c1ccc2c(N3C[C@@H](C)N4Cc5nc(N6CC[C@](C)(N)C6)ccc5[C@H]4C3)ccc(C#N)c2n1` [Example 8, 5-[(2S,6R)-11-[(3S)-3-amino-3-methyl-pyrrolidin-1-yl]-6-methyl-4,7,10-triazatricyclo[7.4.0.02,7]trideca-1(9),10,12-trien-4-yl]-2-deuterio-quinoline-8-carbonitrile]: in data set [1], the IC50 came to 139 nM. Moreover, the “CL (h)” value in data set [2] was 6.2 mL/min/kg.
For `[2H]c1ccc2c(N3C[C@@H](C)N4Cc5nc(N6CCC7(CNC7)C6)ccc5[C@H]4C3)ccc(C#N)c2n1` [Example 9, 2-Deuterio-5-[(2S,6R)-11-(2,6-diazaspiro[3.4]octan-6-yl)-6-methyl-4,7,10-triazatricyclo[7.4.0.02,7]trideca-1(9),10,12-trien-4-yl]quinoline-8-carbonitrile], in that order: 106 nM and 6.2 mL/min/kg.
For `[2H]c1ccc2c(N3C[C@@H](C)N4Cc5nc(N6CC[C@@H](N)[C@H](OC)C6)ccc5[C@H]4C3)ccc(C#N)c2n1` [Example 11, 5-[(2S,6R)-11-[(3R,4R)-4-amino-3-methoxy-1-piperidyl]-6-methyl-4,7,10-triazatricyclo[7.4.0.02,7]trideca-1(9),10,12-trien-4-yl]-2-deuterio-quinoline-8-carbonitrile], in that order: 202 nM and 7.1 mL/min/kg.
For `[2H]c1ccc2c(N3C[C@@H](C)N4Cc5nc(N6CC[C@H](N)[C@H](OC)C6)ccc5[C@H]4C3)ccc(C#N)c2n1` [Example 13, 5-[(2S,6R)-11-[(3R,4S)-4-amino-3-methoxy-1-piperidyl]-6-methyl-4,7,10-triazatricyclo[7.4.0.02,7]trideca-1(9),10,12-trien-4-yl]-2-deuterio-quinoline-8-carbonitrile], in that order: 289 nM and 9.4 mL/min/kg.
On to `[2H]c1ccc2c(N3C[C@@H](C)N4Cc5nc(N6C[C@@H]7C[C@H]6CN7)ccc5[C@H]4C3)ccc(C#N)c2n1` [Example 16, 2-Deuterio-5-[(2S,6R)-11-[(1S,4S)-2,5-diazabicyclo[2.2.1]heptan-2-yl]-6-methyl-4,7,10-triazatricyclo[7.4.0.02,7]trideca-1(9),10,12-trien-4-yl]quinoline-8-carbonitrile], for which the IC50 in data set [1] was 121 nM. In addition, in data set [2], the “CL (h)” value was 6.2 mL/min/kg.
For `C[C@@H]1CN(c2ccc(C#N)n3nccc23)C[C@@H]2c3ccc(N4C[C@@H]5C[C@H]4CN5)nc3CN12` [Example 21, 4-[(2S,6R)-11-[(1S,4S)-2,5-diazabicyclo[2.2.1]heptan-2-yl]-6-methyl-4,7,10-triazatricyclo[7.4.0.02,7]trideca-1(9),10,12-trien-4-yl]pyrazolo[1,5-a]pyridine-7-carbonitrile], in data set [1], the IC50 was 177 nM. Also, in data set [2], the “CL (h)” value stood at 6.6 mL/min/kg.
Consider `[2H]c1ccc2c(N3C[C@@H](C)N4Cc5nc(C6CCNCC6)ccc5[C@H]4C3)ccc(C#N)c2n1` [Example 23, 2-Deuterio-5-[(2S,6R)-6-methyl-11-(4-piperidyl)-4,7,10-triazatricyclo[7.4.0.02,7]trideca-1(9),10,12-trien-4-yl]quinoline-8-carbonitrile], for which the IC50 in data set [1] worked out at 232 nM. Further, the “CL (h)” value in data set [2] turned out to be 6.2 mL/min/kg.
As to `[2H]c1ccc2c(N3C[C@@H](C)N4Cc5nc(OC6CCNCC6)ccc5[C@H]4C3)ccc(C#N)c2n1` [Example 24, 2-Deuterio-5-[(2S,6R)-6-methyl-11-(4-piperidyloxy)-4,7,10-triazatricyclo[7.4.0.02,7]trideca-1(9),10,12-trien-4-yl]quinoline-8-carbonitrile], in data set [1], the IC50 amounted to 118 nM. For the same compound, the “CL (h)” value in data set [2] was 6.2 mL/min/kg.

(Values after patent publication US12503471B2, “Triazatricycle compounds for the treatment of autoimmune disease” (Hoffmann-La Roche Inc., priority 2019, dated 2025).)
